Data published in PMC10233829 (ACS Omega, 2023).
Values after ≈ are worked out from the molar mass of the structure shown.

Assays:
[1] = test system: S. aureus T5595; test: MIC, twofold microdilution, clinical strain; assay type: cell-based, Staphylococcus aureus; conditions: for MIC: Staphylococcus aureus, T5595, 18 h
[2] = test system: S. epidermidis ATCC 12228; test: MIC, twofold microdilution, standard strain; assay type: cell-based; conditions: Staphylococcus epidermidis, ATCC12228, 18 h
[3] = test system: S. pasteuri KR 4358; test: MIC, twofold microdilution, clinical strain; assay type: cell-based; conditions: Staphylococcus pasteuri, KR4358, 18 h
[4] = test system: E. coli 951; test: MIC, twofold microdilution, clinical strain; assay type: cell-based; conditions: Escherichia coli, 18 h
[5] = test system: S. epidermidis ATCC 35984; test: MIC, twofold microdilution, standard strain; assay type: cell-based; conditions: Staphylococcus epidermidis, ATCC35984, 18 h
[6] = test system: S. aureus NCTC 4163; test: MIC, twofold microdilution, standard strain; assay type: cell-based; conditions: Staphylococcus aureus, NCTC4163, 18 h
[7] = test system: P. aeruginosa 37; test: MIC, twofold microdilution, clinical strain; assay type: cell-based; conditions: Pseudomonas aeruginosa, 18 h
[8] = test system: clinical bacterial strains; test: MIC, clinical isolates as groups of strains; assay type: cell-based
[9] = test system: K. pneumoniae 510; test: MIC, twofold microdilution, clinical strain; assay type: cell-based, Klebsiella pneumoniae; conditions: Klebsiella pneumoniae, 510; clinical strain, 18 h
[10] = test system: S. aureus T5591; test: MIC, twofold microdilution, clinical strain; assay type: cell-based, Staphylococcus aureus; conditions: for MIC: Staphylococcus aureus, T5591, 18 h
[11] = test system: E. coli 600; test: MIC, twofold microdilution, clinical strain; assay type: cell-based, Escherichia coli; conditions: Escherichia coli, 600, 18 h
[12] = test system: E. cloacae 8; test: MIC, twofold microdilution, clinical strain; assay type: cell-based, Escherichia cloacae; conditions: for MIC: Enterobacter cloacae, 8, clinical strain, 18 h
[13] = test system: K. pneumoniae 28; test: MIC, twofold microdilution, clinical strain; assay type: cell-based; conditions: Klebsiella pneumoniae, 18 h
[14] = test system: S. aureus 5595; test: MIC, twofold microdilution, clinical strain; assay type: cell-based; conditions: Staphylococcus aureus, 18 h
[15] = test system: S. aureus ATCC 29213; test: MIC, twofold microdilution, standard strain; assay type: cell-based; conditions: Staphylococcus aureus, ATCC29213, 18 h
[16] = test system: P. aeruginosa 659; test: MIC, twofold microdilution, clinical strain; assay type: cell-based; conditions: Pseudomonas aeruginosa, 18 h
[17] = test system: S. aureus ATCC 6538; test: MIC, twofold microdilution, standard strain; assay type: cell-based, Staphylococcus aureus; conditions: Staphylococcus aureus, ATCC6538; standard strain, 18 h
[18] = test system: S. epidermidis KR4243/1; test: MIC, twofold microdilution, clinical strain; assay type: cell-based; conditions: Staphylococcus epidermidis, 18 h
[19] = test system: E. coli ATCC 25922; test: MIC, twofold microdilution, standard strain; assay type: cell-based, Escherichia coli; conditions: Escherichia coli, ATCC25922; standard strain, 18 h
[20] = MTT assay, cytotoxic activity; assay type: cell-based; conditions: human, HaCaT cells (immortal keratinocytes); MTT, 72 h, normal cell line; read-out: IC50 HaCaT
Procedure, shortened: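 Viability was calculated as A/B × 100%, with A the absorbance of treated samples and B that of untreated controls, from MTT reduction. Cells were cultured in a humidified 37 °C/5% CO2 incubator.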

[21] = test system: P. aeruginosa ATCC 15442; test: MIC, twofold microdilution, standard strain; assay type: cell-based, Pseudomonas aeruginosa; conditions: Pseudomonas aeruginosa, ATCC15442; standard strain, 18 h
[22] = test system: S. aureus 180; test: MIC, twofold microdilution, clinical strain; assay type: cell-based; conditions: Staphylococcus aureus, 18 h
[23] = test system: S. epidermidis 4341; test: MIC, twofold microdilution, clinical strain; assay type: cell-based; conditions: Staphylococcus epidermidis, 18 h
[24] = test system: S. aureus ATCC 25923; test: MIC, twofold microdilution, standard strain; assay type: cell-based; conditions: Staphylococcus aureus, ATCC25923, 18 h
[25] = test system: M. tuberculosis H37Rv; test: Tuberculostatic activity, Microplate Alamar Blue Assay (MIC); assay type: cell-based, Mycobacterium tuberculosis; parameters: concentration with growth inhibition as good as RMP and SM or EMB: unit not given here; conditions: for MIC: Mycobacterium tuberculosis, H37RV, MABA, read-out: MIC M. tuberculosis H37Rv
[26] = test system: S. epidermidis 5253; test: MIC, twofold microdilution, clinical strain; assay type: cell-based, Staphylococcus epidermidis; conditions: for MIC: Staphylococcus epidermidis, 5253, 18 h
[27] = test system: M. tuberculosis Spec. 192; test: Tuberculostatic activity, Microplate Alamar Blue Assay (MIC); assay type: cell-based; conditions: Mycobacterium tuberculosis, MABA, read-out: MIC M. tuberculosis Spec. 192 (sensitive to tuberculostatics)
[28] = test system: E. coli 520; test: MIC, twofold microdilution, clinical strain; assay type: cell-based; conditions: Escherichia coli, 18 h
[29] = test system: PC3 cells; test: MTT assay, cytotoxic activity; assay type: cell-based, human; conditions: Homo sapiens, PC-3, 72 h, MTT, 72 h
Procedure, shortened: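 Cytotoxicity readout: relative MTT level (%), i.e. absorbance of compound-treated PC3 cells divided by that of untreated controls, ×100. Cultures were kept in a humidified 37 °C, 5% CO2 incubator.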

| Structure (SMILES) | MIC [1] | MIC [2] | MIC [3] | MIC [4] | MIC [5] | MIC [6] | MIC [7] | MIC [9] | MIC [10] | MIC [11] | MIC [12] | MIC [13] | MIC [14] | MIC [15] | MIC [16] | MIC [17] | MIC [18] | MIC [19] | IC50 at 72 h [20] | MIC [21] | further results |
| --- | --- | --- | --- | --- | --- | --- | --- | --- | --- | --- | --- | --- | --- | --- | --- | --- | --- | --- | --- | --- | --- |
| O=C(O)c1cn(C2CC2)c2cc(N3CCN(C(=O)C4CC4)CC3)c(F)cc2c1=O [Compound 2, 7-(4-Cyclopropanecarbonyl-piperazin-1-yl)-1-cyclopropyl-6-fluoro-4-oxo-1,4-dihydro-quinoline-3-carboxylic Acid] | 0.1 to 0.2 µg/mL (≈ 0.25 to 0.501 µM) | 0.1 µg/mL (≈ 0.25 µM) | 0.2 µg/mL (≈ 0.501 µM) | 6.4 µg/mL (≈ 16 µM) | 0.1 µg/mL (≈ 0.25 µM) | 0.1 µg/mL (≈ 0.25 µM) | 12.8 µg/mL (≈ 32 µM) | 25.6 µg/mL (≈ 64.1 µM) | 0.1 to 0.2 µg/mL (≈ 0.25 to 0.501 µM) | 0.2 µg/mL (≈ 0.501 µM) | 0.05 µg/mL (≈ 0.125 µM) | > 25.6 µg/mL | 0.4 µg/mL (≈ 1 µM) | 0.1 µg/mL (≈ 0.25 µM) | 6.4 µg/mL (≈ 16 µM) | 0.1 µg/mL (≈ 0.25 µM) | 0.2 µg/mL (≈ 0.501 µM) | 0.05 µg/mL (≈ 0.125 µM) | 75.7 ± 7.5 µM | 0.8 µg/mL (≈ 2 µM) | MIC S. aureus T5595 ([1]; 18 h): 0.2 µg/mL (≈ 0.501 µM); times more powerful than CP ([8]; S. aureus T5595 and T5591): 1.25–2.5 times; MIC ([8]; clinical strains, read-out: MIC against selected E. coli and E. cloacae strains): 0.1 to 0.8 µg/mL (≈ 0.25 to 2 µM); MIC S. aureus T5591 ([10]; 18 h): 0.2 µg/mL (≈ 0.501 µM); MIC times lower than CP alone ([12]; E. cloacae isolate): 1.2 times; MIC [22]: 0.4 µg/mL (≈ 1 µM); MIC [23]: 12.8 µg/mL (≈ 32 µM); MIC [24]: 0.2 µg/mL (≈ 0.501 µM); concentration with growth inhibition as good as RMP and SM or EMB ([25]; M. tuberculosis H37Rv): 1–2; MIC [25]: 1 µg/mL (≈ 2.5 µM); MIC S. epidermidis 5253 ([26]; 18 h): 25.6 µg/mL (≈ 64.1 µM); MIC [26]: 12.8 to 25.6 µg/mL (≈ 32 to 64.1 µM); MIC [27]: 0.5 µg/mL (≈ 1.25 µM); MIC [28]: 0.2 µg/mL (≈ 0.501 µM); IC50 [29]: 85.2 ± 8.2 µM |
| O=C(O)c1cn(C2CC2)c2cc(N3CCN(C(=O)CCC(F)(F)F)CC3)c(F)cc2c1=O [Compound 15, 7-[4-(4,4,4-Trifluorobutyryl)-piperazin-1-yl]-1-cyclopropyl-6-fluoro-4-oxo-1,4-dihydro-quinoline-3-carboxylic Acid] | 0.4 µg/mL (≈ 0.878 µM) | 0.2 µg/mL (≈ 0.439 µM) | 0.2 µg/mL (≈ 0.439 µM) | > 25.6 µg/mL | 0.2 µg/mL (≈ 0.439 µM) | 0.2 µg/mL (≈ 0.439 µM) | > 25.6 µg/mL | > 25.6 µg/mL | 0.4 µg/mL (≈ 0.878 µM) | 3.2 µg/mL (≈ 7.03 µM) | > 25.6 µg/mL | > 25.6 µg/mL | 0.5 µg/mL (≈ 1.1 µM) | 0.2 µg/mL (≈ 0.439 µM) | > 25.6 µg/mL | 0.2 µg/mL (≈ 0.439 µM) | 0.2 µg/mL (≈ 0.439 µM) | 1.6 µg/mL (≈ 3.51 µM) | 85.5 ± 9.2 µM | 1 µg/mL (≈ 2.2 µM) | share of the reference (CP) activity ([8]; S. aureus T5595 and T5591): 62.5%; MIC [22]: 0.5 µg/mL (≈ 1.1 µM); MIC [23]: > 25.6 µg/mL; MIC [24]: 0.2 µg/mL (≈ 0.439 µM); MIC [25]: 64 µg/mL (≈ 141 µM); MIC [26]: > 25.6 µg/mL; MIC [27]: 64 µg/mL (≈ 141 µM); MIC [28]: 3.2 µg/mL (≈ 7.03 µM); IC50 [29]: 15.7 ± 3.8 µM |
